Reference: patent US20140344996A1, “METHODS AND MEANS TO PRODUCE ABIOTIC STRESS TOLERANT PLANTS” (VIB VZW, priority 2011, published 2014)

What was measured:
Assay type in all cases: in vivo, Arabidopsis thaliana
Arabidopsis seedlings [1] = test: Leaf growth of Arabidopsis seedlings in vitro after transfer to Dex medium; conditions: 5 μM Dexamethasone in ½ MS medium, transfer at 9DAS
Procedure: Seedlings were grown in vitro on half-strength Murashige and Skoog medium (Murashige and Skoog 1962) containing 1% sucrose and 6.5 g/L agar at 21° C. under a 16-hour day (110 μmol m^−2 s^−1) and 8-hour night regimen. The growth medium was overlaid with nylon mesh (Prosep, Zaventem, Belgium) of 20 μm pore size to facilitate transfer to induction medium. For expression analysis and growth experiments, 64 resp. 32 seeds were equally distributed on a 15-cm diameter petri dish. […] At 9DAS, when the third leaf is fully proliferating, the mesh with seedlings was transferred to plates containing ½ MS medium with 5 μM Dexamethasone (Dex). For expression analysis and growth experiments, all seedlings were transferred to Dex, including the control lines, to account for the possible effects of Dex on growth or gene expression. […] Here, the non-treated plants will serve as a control for the Dex-induced plants of the same line. […] Growth analysis was performed on the third true leaf harvested at different time points after transfer to Dex. After clearing with 70% ethanol, leaves were mounted in lactic acid on microscopic slides. […] Photographs of leaves and drawings were used to measure leaf area and cell size, respectively, using ImageJ v1.37o (NIH; on the World Wide Web at //rsb.info.nih.gov/ij/), and from these cell numbers were calculated by dividing leaf area with cell area.

Arabidopsis seedlings [2] = test: Gene expression in the third leaf after transfer to Dex medium; conditions: 5 μM Dexamethasone in ½ MS medium, transfer at 9DAS
Procedure: At 9DAS, when the third leaf is fully proliferating, the mesh with seedlings was transferred to plates containing ½ MS medium with 5 μM Dexamethasone (Dex). For expression analysis and growth experiments, all seedlings were transferred to Dex, including the control lines, to account for the possible effects of Dex on growth or gene expression. […] Here, the non-treated plants will serve as a control for the Dex-induced plants of the same line. […] Leaf 3 was harvested from plants at 1, 2, 4 and 24 hours after transfer. Samples were obtained from three independent experiments and from multiple plates within the experiment. Whole seedlings were harvested rapidly in an excess of RNAlater solution (Ambion) and, after overnight storage at 4° C., dissected under a binocular microscope on a cooling plate with precision microscissors. Dissected leaves were transferred to a new tube, frozen in liquid nitrogen, and ground with a Retsch machine and 3-mm metal balls. RNA was extracted with TriZol (Invitrogen) and further purified with the RNEASY® Mini Kit (Qiagen). DNA digestion was done on-column with Rnase-free DNase I (Roche). […] Melting curves were analyzed to check primer specificity. […] Ct refers to the number of cycles at which SYBR Green fluorescence reaches an arbitrary value during the exponential phase of the cDNA amplification.

[3] = tested on: Arabidopsis wild-type plants; test: Growth of the third leaf under mild osmotic stress (mannitol); conditions: wild-type line, transfer at 9DAS to medium with 25 mM Mannitol
Procedure: It was opted to study growing plants upon exposure to mild stress, not threatening plant survival but only reducing plant growth by an average of 50%. For loss-of-function analysis, the double erf5/erf6 T-DNA insertion mutant and a wild-type line were grown on control medium until 9DAS and then transferred to growth medium containing 25 mM of the osmoticum Mannitol. Subsequently, upon transfer, growth of the third leaf was measured.
Seedlings were grown in vitro on half-strength Murashige and Skoog medium (Murashige and Skoog 1962) containing 1% sucrose and 6.5 g/L agar at 21° C. under a 16-hour day (110 μmol m^−2 s^−1) and 8-hour night regimen. The growth medium was overlaid with nylon mesh (Prosep, Zaventem, Belgium) of 20 μm pore size to facilitate transfer to induction medium. For expression analysis and growth experiments, 64 resp. 32 seeds were equally distributed on a 15-cm diameter petri dish. […]
Growth analysis was performed on the third true leaf harvested at different time points after transfer to Dex. […] Photographs of leaves and drawings were used to measure leaf area and cell size, respectively, using ImageJ v1.37o (NIH; on the World Wide Web at //rsb.info.nih.gov/ij/), and from these cell numbers were calculated by dividing leaf area with cell area.

`C[C@@H]1C[C@H]2[C@@H]3CCC4=CC(=O)C=C[C@]4(C)[C@@]3(F)[C@@H](O)C[C@]2(C)[C@@]1(O)C(=O)CO` [Dex, Dexamethasone] was tested, and the effect on growth (Arabidopsis seedlings [1]) was “no effect” and the “effect on gene expression” value (Arabidopsis seedlings [2]) was “no effect”.

For `OC[C@@H](O)[C@@H](O)[C@H](O)[C@H](O)CO` [Mannitol], the “growth of the third leaf” value [3] was “expected growth reduction”.
